Laboratory results published in US5334606A, “Oxazolidindione substituted indole derivatives” (Merck Sharpe & Dohme Ltd., priority 1991, dated 1994).

Target: T1, human neurokinin-1- receptor (NK1R) (Homo sapiens, UniProt P25103)
T1 construct: expressed in transfected cells
Assay: 125I-substance P binding assay, human NK1R expressed in COS or CHO cells (Substance P antagonism)
Conditions: displacement of 125I-substance P, 4° C. or room temperature, 1 hour
Procedure: SUBSTANCE P ANTAGONISM ASSAY
A. Receptor Expression in Monkey Kidney Cell Line (COS)
To express the cloned human neurokinin-1- receptor (NK1R) transiently in COS, the cDNA for the human NK1R was cloned into the expression vector pCDM9 which was derived from pCDM8 (INVITROGEN) by inserting the ampicillin resistance gene (nucleotide 1973 to 2964 from BLUESCRIPT SK+ (trademark, STRATAGENE, La Jolla, Calif., USA)) into the Sac II site. Transfection of 20 μg of the plasmid DNA into 10 million COS cells was achieved by electropotation in 800 μl of transfection buffer (135 mM NaCl, 1.2 mM CaCl2, 1.2 mM MgCl2, 2.4 mM K2 HPO4, 0.6 mM KH2 PO4, 10 mM glucose, 10 mM N-2-hydroxyethyl-piperazine-N'-2-ethane sulphonic acid (HEPES) pH 7.4) at 260 V and 950 μF using the IBI GENEZAPPER (trademark IBI, New Haven, Conn., USA). The cells were incubated in 10% fetal calf serum, 2 mM glutamine, 100U/ml penicillin-streptomycin, and 90% DMEM media (GIBCO, Grand Island, N.Y., USA) in 5% CO2 at 37° C. for three days before the binding assay.
B. Stable Expression in Chinese Hamster Ovarian Cell Line (CHO)
To establish a stable cell line expressing cloned human NK1R, the cDNA was subcloned into the vector pRcCMV (INVITROGEN). Transfection of 20 μg of the plasmid DNA into CHO cells was achieved by electroporation in 800 μl of transfection buffer supplemented with 0.625 mg/ml Herring sperm DNA at 300 V and 950 μF using the IBI GENEZAPPER (IBI). The transfected cells were incubated in CHO media [10% fetal calf serum, 100 U/ml penicillin-streptomycin, 2 mM glutamine, 1/500 hypoxanthinethymidine (ATCC), 90% IMDM media (JRH BIOSCIENCES, Lenexa, Kans., USA), 0.7 mg/ml G418 (GIBCO)] in 5% CO2 at 37° C. until colonies were visible. Each colony was separated and propagated. The cell clone with the highest number of human NK1R was selected.
C. Assay Protocol using COS or CHO
The binding assay of human NK1R expressed in either COS or CHO cells is based on the use of ^125 I-substance P (^125 I-SP, from DU PONT, Boston, Mass.) as a radioactively labeled ligand which competes with unlabeled substance P or any other ligand for binding to the human NK1R. Monolayer cell cultures of COS or CHO were dissociated by the non-enzymatic solution (SPECIALTY MEDIA, Lavellette, N.J.) and resuspended in appropriate volume of the binding buffer (50 mM Tris pH 7.5, 5 mM MnCl2, 150 mM NaCl, 0.04 mg/ml bacitracin, 0.004 mg/ml leupeptin, 0.2 mg/ml BSA, 0.01 mM phosphoramidon) such that 200 μl of the cell suspension would give rise to about 10,000 cpm of specific ^125 I-SP binding (approximately 50,000 to 200,000 cells). In the binding assay, 200 μl of cells were added to a tube containing 20 μl of 1.5 to 2.5 nM of ^125 I-SP and 20 μl of unlabeled substance P or any other test compound. The tubes were incubated at 4° C. or at room temperature for 1 hour with gentle shaking. The bound radioactivity was separated from unbound radioactivity by GF/C filter (BRANDEL, Gaithersburg, MD) which was pre-wetted with 0.1% polyethylenimine. The filter was washed with 3 ml of wash buffer (50 mM Tris pH 7.5, 5 mM MnCl2, 150 mM NaCl) three times and its radioactivity was determined by gamma counter.

T1 sequence (P25103 whole entry): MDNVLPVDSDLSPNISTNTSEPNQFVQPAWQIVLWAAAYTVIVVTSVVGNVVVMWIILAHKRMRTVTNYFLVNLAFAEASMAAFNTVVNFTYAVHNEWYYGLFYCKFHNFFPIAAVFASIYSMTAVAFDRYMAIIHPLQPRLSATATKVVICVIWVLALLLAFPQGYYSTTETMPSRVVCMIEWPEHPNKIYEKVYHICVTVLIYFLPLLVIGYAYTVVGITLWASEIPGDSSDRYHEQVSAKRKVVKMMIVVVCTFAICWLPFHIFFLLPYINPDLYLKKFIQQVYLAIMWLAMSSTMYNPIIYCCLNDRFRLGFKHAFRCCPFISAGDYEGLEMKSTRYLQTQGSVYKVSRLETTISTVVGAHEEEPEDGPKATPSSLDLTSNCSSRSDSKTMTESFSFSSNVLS

Going from `CC1(Cc2c[nH]c3ccccc23)OC(=O)N(Cc2cc(C(F)(F)F)cc(C(F)(F)F)c2)C1=O` (stereo not drawn) [Example 4b] to `O=C1CC(Cc2c[nH]c3ccccc23)C(=O)N1Cc1cc(C(F)(F)F)cc(C(F)(F)F)c1` (stereo not drawn) [Example 3], the IC50 rises from 140 nM to 250 nM (1.8-fold).

First: O=C1OC(Cc2c[nH]c3ccccc23)C(=O)N1Cc1cc(Cl)cc(Cl)c1 (stereo not drawn) [Example 7]
Second: C=CCC1(Cc2c[nH]c3ccccc23)OC(=O)N(Cc2cc(C(F)(F)F)cc(C(F)(F)F)c2)C1=O (stereo not drawn) [Example 6]
The IC50 of the first is 4-fold higher: 200 nM for the first, 50 nM for the second. The second is the more potent here.

Compared with `O=C1C(Cc2c[nH]c3ccccc23)N(Cc2ccccc2)C(=O)N1Cc1cc(C(F)(F)F)cc(C(F)(F)F)c1` (stereo not drawn) [Example 11], `COc1ccc2[nH]cc(CC3OC(=O)N(Cc4cc(C(F)(F)F)cc(C(F)(F)F)c4)C3=O)c2c1` (stereo not drawn) [Example 5] is 2.1-fold lower in IC50: 630 nM for the first, 300 nM for the second. The second is the more potent here.

Going from `CC1(Cc2ccc(Cl)c(Cl)c2)OC(=O)N(Cc2cc(C(F)(F)F)cc(C(F)(F)F)c2)C1=O` (stereo not drawn) [Example 10, 5-Methyl-5(3,4-dichlorobenzyl)-3-(3,5-bistrifluoromethylbenzyl)oxazolidin-2,4-dione] to `Cn1cc(CC2OC(=O)N(Cc3cc(C(F)(F)F)cc(C(F)(F)F)c3)C2=O)c2ccccc21` (stereo not drawn) [Example 4c], the IC50 rises from 100 nM to 300 nM (3-fold). The first is the more potent here.

Going from `CNC(=O)N1C(=O)N(Cc2cc(C(F)(F)F)cc(C(F)(F)F)c2)C(=O)C1Cc1c[nH]c2ccccc12` (stereo not drawn) [Example 14] to `O=C1OC(Cc2c[nH]c3ccccc23)C(=O)N1Cc1cc(C(F)(F)F)cc(C(F)(F)F)c1` (stereo not drawn) [Example 1], the IC50 falls from 85 nM to 21 nM (4-fold).

Compared with `O=C1O[C@@H](Cc2c[nH]c3ccccc23)C(=O)N1Cc1cc(C(F)(F)F)cc(C(F)(F)F)c1` [Example 8], `O=C1NC(Cc2c[nH]c3ccccc23)C(=O)N1Cc1cc(C(F)(F)F)cc(C(F)(F)F)c1` (stereo not drawn) [Example 2] is 24-fold higher in IC50: 17 nM for the first, 400 nM for the second.

Compared with `Cn1cc(CC2(C)OC(=O)N(Cc3cc(C(F)(F)F)cc(C(F)(F)F)c3)C2=O)c2ccccc21` (stereo not drawn) [Example 4a, 3-(3,5-Bistrifluoromethylbenzyl)-5-methyl-5-(1-methylindol-3-ylmethylene)oxazolidin-2,4-dione], `CN1C(=O)N(Cc2cc(C(F)(F)F)cc(C(F)(F)F)c2)C(=O)C1Cc1c[nH]c2ccccc12` (stereo not drawn) [Example 12] is 11-fold higher in IC50: 14 nM for the first, 160 nM for the second. The first is the more potent here.

Compared with `CC1(Cc2ccc3ccccc3c2)OC(=O)N(Cc2cc(C(F)(F)F)cc(C(F)(F)F)c2)C1=O` (stereo not drawn) [Example 9, 5-Methyl-5-(2-naphthylmethyl)-3-(3,5-bistrifluoromethylbenzyl)oxazolidin-2,4-dione], “1-Phenylcarboxamide-3-(3,5-bistrifluoromethylbenzyl)-5-(indol-3-ylmethylene)imidazolidine-2,4-dione [Example 13]” is lower in IC50: greater than 1000 nM for the first, 410 nM for the second. The second is the more potent here.

Test system: not given
Assay: not given
Conditions: literature, J. Med. Chem., 24(4), 465-8 (1981); cited from earlier work

In the case of `CN1C(=O)NC(Cc2cccc(Br)c2)C1=O` (stereo not drawn), the anticonvulsant activity is given as “weak anticonvulsant activity”.

Test system: not given
Assay: not given
Conditions: literature, J. Med. Chem., 33(5), 1418-23 (1990); cited from earlier work

In the case of `O=C1NC(=O)C(Cc2ccc3ccccc3c2)S1` (stereo not drawn), the antihyperglycaemic activity is given as “antihyperglycaemic activity”.
